Our source for the IC50 values is patent US20070185079A1, “Therapeutic agents I” (ASTRAZENECA AB, priority 2004, published 2007).

A word on the IC50: it is the concentration at which inhibition is half-maximal.

Molecules are shown by their SMILES.

The target in one test is T1, human Melanin concentrating hormone receptor 1 (MCH1r) (Homo sapiens, UniProt Q99705).
T1 construct: expressed in transfected cells; host or cells: CHO-K1
T1 sequence (Q99705 whole entry): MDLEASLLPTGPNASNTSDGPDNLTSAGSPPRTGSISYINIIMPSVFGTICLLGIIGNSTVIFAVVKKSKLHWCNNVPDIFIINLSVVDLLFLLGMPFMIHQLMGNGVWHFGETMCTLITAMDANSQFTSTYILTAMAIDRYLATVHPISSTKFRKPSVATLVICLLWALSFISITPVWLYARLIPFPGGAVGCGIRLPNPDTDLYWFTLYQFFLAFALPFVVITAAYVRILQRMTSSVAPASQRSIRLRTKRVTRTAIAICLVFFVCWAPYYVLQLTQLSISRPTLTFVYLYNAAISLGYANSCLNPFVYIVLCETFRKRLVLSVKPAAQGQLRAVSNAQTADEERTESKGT
Description: MCH1 receptor radioligand binding, membranes from CHO-K1 cells, 125I-MCH. To be noted: CHO-K1 cell membranes expressing human MCH1r, 30° C., 60 minutes, read-out: IC50 in human MCHr binding assay. The method, then: MCH1 Receptor Radioligand Binding.
Assays were performed on membranes prepared from CHO-K1 cells expressing the human Melanin concentrating hormone receptor 1 (MCH1r). Assays were performed in a 96-well plate format in a final reaction volume of 200 μl per well. Each well contained 6 μg of membrane proteins diluted in binding buffer (50 mM Tris, 3 mM MgCl2, 0.05% bovine serum albumin (BSA) and the radioligand ^125I-MCH (IM344 Amersham) was added to give 10 000 cpm (counts per minute) per well. Each well contained 2 μl of the appropriate concentration of competitive antagonist prepared in DMSO and left to stand at 30° C. for 60 minutes. Non-specific binding was determined as that remaining following incubation with 1 μM MCH (Melanin concentrating hormone, H-1482 Bachem). The reaction was terminated by transfer of the reaction to GF/A filters using a Micro96 Harvester (Skatron Instruments, Norway). Filters were washed with assay buffer. Radioligand retained on the filters was quantified using a1450 Microbeta TRILUX (Wallac , Finland).
(§1) Non-specific binding was subtracted from all values determined. Maximum binding was that determined in the absence of any competitor following subtraction of the value determined for non-specific binding. Binding of compounds at various concentrations was plotted according to the equation y=A+((B−A)/1+((C/x)ˆAD))) and IC50 estimated where • A is the bottom plateau of the curve i.e. the final minimum y value • B is the top of the plateau of the curve i.e. the final maximum y value • C is the x value at the middle of the curve. This represents the log EC50 value when A+B=100 • D is the slope factor. x is the original known x values. y is the original known y values.
Regarding `COc1ccc2nc(N[C@H]3CC[C@H](NCc4ccc(-c5cccs5)s4)C3)cc(C)c2c1` [Example 16, (1S,3S)-N-(2,2′-bithien-5-ylmethyl)-N′-(6-methoxy-4-methylquinolin-2-yl)cyclopentane-1,3-diamine], the IC50 came to 94 nM.

Take `COc1ccc2nc(N3CC4CCC(C3)C4N(C)Cc3ccsc3)cc(C)c2c1` (stereo not drawn) [Example 20, 3-(6-Methoxy-4-methylquinolin-2-yl)-N-methyl-N-(3-thienylmethyl)-3-azabicyclo [3.2.1]octan-8-amine]: the IC50 is 560 nM.

Consider `Cc1cc(N[C@H]2CC[C@H](NCc3cn(C)c4cnccc34)C2)nc2ccc(F)cc12` [Example 35, (1S,3S)-N-(6-Fluoro-4-methylquinolin-2-yl)-N′-[(1-methyl-1H-pyrrolo[2,3-c]pyridin-3-yl)methyl]cyclopentane-1,3-diamine], for which the IC50 came out at 830 nM.

In the case of `COc1cc(N[C@H]2CCC[C@H](NCc3ccsc3)C2)nc2ccc(F)cc12` [Example 5, (1S3S)-N-(6-fluoro-4-methoxyquinolin-2-yl)-N′-(3-thienylmethyl)cyclohexane-1,3-diamine], the IC50 turned out to be 26 nM.

On to `COc1ccc2c(C)cc(N[C@H]3C[C@@H]4C[C@H]3[C@@H](NCc3cn(C)c5ccccc35)C4)nc2c1` [Example 32, (1S,2S,4R,6S)-N-(7-methoxy-4-methylquinolin-2-yl)-N′-[(1-methyl-1H-indol-3-yl)methyl]bicyclo[2.2.1]heptane-2,6-diamine], for which the IC50 was 44 nM.

The target in a further test is T2, rat Melanin concentrating hormone receptor 1 (MCH1r) (Rattus norvegicus, UniProt P97639).
T2 construct: expressed in transfected cells
T2 sequence (P97639 whole entry): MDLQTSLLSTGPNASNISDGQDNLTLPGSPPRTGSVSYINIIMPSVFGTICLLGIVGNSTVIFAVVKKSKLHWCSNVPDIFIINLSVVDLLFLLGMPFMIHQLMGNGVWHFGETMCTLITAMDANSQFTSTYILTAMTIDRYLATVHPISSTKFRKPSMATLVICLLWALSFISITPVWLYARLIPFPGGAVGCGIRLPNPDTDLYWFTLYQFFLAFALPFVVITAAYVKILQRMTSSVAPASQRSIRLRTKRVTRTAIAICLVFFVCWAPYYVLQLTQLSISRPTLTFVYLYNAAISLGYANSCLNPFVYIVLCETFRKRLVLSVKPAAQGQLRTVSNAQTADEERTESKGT
Put plainly: MCH1 receptor radioligand binding, membranes from HEK293 cells, 125I-MCH. To be noted: HEK293 cell membranes stably expressing rat MCH1r, room temperature, 60 minutes.
Excerpt: as §1
Assays were also performed on membranes prepared from HEK293 cells stably expressing the rat Melanin concentrating hormone receptor 1 (MCH1r) (Lembo et al. Nature Cell Biol 1 267-271). Assays were performed in a 96-well plate format in a final reaction volume of 200 μl per well. […] Radioligand retained on the filters was quantified using a1450 Microbeta TRILUX (Wallac, Finland).
With `Cc1cc(N[C@H]2CC[C@H](NCc3cn(C)c4ccccc34)C2)nc2ccc(F)cc12` [Example 6, (1S,3S)-N-(6-fluoro-4-methylquinolin-2-yl)-N′-[(1-methyl-1H-indol-3-yl)methyl]cyclopentane-1,3-diamine], the IC50 is 79 nM.
